# Reference: patent US20090012038A1, “Methods for microbial biofilm destruction and interference with microbial cellular physiology” (priority 2004, published 2009)
# How the values were obtained:
# [1] = test system: S. oneidensis strain AS129 biofilm cells (IPTG inducible gfp); experiment: Transcription test in biofilm cells: IPTG-inducible gfp, GFP fluorescence by CLSM; type: cell-based, Shewanella oneidensis; conditions: 10 mM IPTG in flow-through medium; after 1 hour
# Procedure: In order to assure that rifampicin indeed inhibited transcription in biofilm cells under those conditions, we designed an experiment to test transcription in biofilm cells. Tester cells were S. oneidensis cells tagged with an IPTG inducible gfp under control of Pt, which is repressed by LacIQ. […] Upon addition of 10 mM ITPG to the flow-through-medium, the induction of GFP in biofilm cells was readily observed by CLSM throughout the entire biofilm and quantified. This assay is very sensitive, and after 1 hour, about 20% of the maximal inducible GFP fluorescence was observed.
# S. oneidensis biofilms = experiment: Stop-of-flow-induced detachment of biofilms in hydrodynamic flow chamber (CLSM, COMSTAT); type: cell-based, Shewanella oneidensis MR-1
# Procedure: Transcription is not required for the oxygen starvation-induced detachment. To directly test whether transcription is required for detachment upon rapid decrease in molecular oxygen concentration, we grew biofilms of S. oneidensis in LM medium for 12 h, and subsequently switched the medium to a LM medium amended with 10 μg/ml rifampicin for 10 or 40 minutes, respectively. After that time period, the medium flow was stopped to induce detachment.
# External addition of c-di-GMP reversibly prevents biofilm detachment. […] We, therefore, predicted that amending the flow through medium of a biofilm in a hydrodynamic system with c-di-GMP should prevent the induction of detachment after applying a stop-of-flow. To test this hypothesis, biofilms of wild type S. oneidensis were grown in LM medium. […] After 30 min, the flow was stopped to induce detachment and the non-detached biomass was quantified. […]
# Microscopic visualization of and image acquisition from biofilms took place at the Stanford Biofilm Research Center using an upright Zeiss LSM510 Confocal Laser Scanning Microscope (Carl Zeiss, Jena, Germany) equipped with the following objectives: 10×/0.3 Plan-Neofluar, 20×/0.5W Achroplan, and 40×/1.2W C-Apochromat. […] Biofilm parameters, such as biomass, and average biofilm thickness were quantified with the program COMSTAT (Heydorn et al., 2000).
Structure (SMILES),"GFP fluorescence, share of the maximal inducible GFP fluorescence [1]","detachment after stop-of-flow following removal of c-di-GMP (S. oneidensis biofilms; flow resumed with LM devoid of c-di-GMP, 2 h incubation, then flow stopped)","detachment after stop-of-flow (S. oneidensis biofilms; wild type biofilm 12 h in LM, medium amended with 5 mM c-di-GMP, flow stopped after 30 min)"
"CC(C)S[C@@H]1O[C@H](CO)[C@H](O)[C@H](O)[C@H]1O [IPTG, isopropyl-D-D-thiogalactopyranosid]",about 20%,,
"Nc1nc2c(ncn2[C@@H]2O[C@@H]3COP(=O)(O)O[C@H]4[C@@H](O)[C@H](n5cnc6c(=O)[nH]c(N)nc65)O[C@@H]4COP(=O)(O)O[C@H]3[C@H]2O)c(=O)[nH]1 [c-di-GMP, cyclic-bis(3′,5′)guanylic acid]",,the biofilm still detached,no detachment was observed
